What was measured:
5-HT2A (h) = 5-HT2A (h) (Homo sapiens, UniProt P28223); test: Receptor panel, Study 1; type: binding
Procedure: (§1) RESULTS AND DISCUSSION—Selectivity—The compound of Formula (III) was evaluated in three selectivity panels to assess the potential for off-target pharmacology (Table 8). […] The kinase off-target profile of The compound of Formula (III) was assessed in a full human wild-type panel using radiometric kinase activity assays (KinaseProfiler™ and IC50Profiler™; Eurofins Scientific) (Table 9; FIG. 23). The compound of Formula (III) inhibited 4/278 kinases >50% at 1 micromolar, identifying BTK and the three other kinases having analogous Cys residues with the potential for covalent inhibition (BMX, TEC, BLK). […]. The cellular kinase selectivity of The compound of Formula (III) was established in native Ramos B cell kinome assays (KiNativ™; ActivX) confirmed BTK as the primary target with inhibition of BLK and TEC inhibition detected (Table 10).

VIP1 (h) (VPAC1) = VIP1 (h) (VPAC1) (Homo sapiens, UniProt P32241); test: Receptor panel, Study 1; type: binding
Procedure: as §1

ORL1 (h) (NOP) = ORL1 (h) (NOP) (Homo sapiens, UniProt P41146); test: Receptor panel, Study 1; type: binding
Procedure: as §1

5-HT6 (h) = 5-HT6 (h) (Homo sapiens, UniProt P50406); test: Receptor panel, Study 1; type: binding
Procedure: as §1

MC4 (h) = MC4 (h) (Homo sapiens, UniProt P32245); test: Receptor panel, Study 1; type: binding
Procedure: as §1

GAL2 (h) = GAL2 (h) (Homo sapiens, UniProt O43603); test: Receptor panel, Study 1; type: binding
Procedure: as §1

AT1 (h) = AT1 (h) (Homo sapiens, UniProt P30556); test: Receptor panel, Study 1; type: binding
Procedure: as §1

5-HT7 (h) = 5-HT7 (h) (Homo sapiens, UniProt P34969); test: Receptor panel, Study 1; type: binding
Procedure: as §1

NK3 (h) = NK3 (h) (Homo sapiens, UniProt P29371); test: Receptor panel, Study 1; type: binding
Procedure: as §1

ETA (h) = ETA (h) (Homo sapiens, UniProt P25101); test: Receptor panel, Study 1; type: binding
Procedure: as §1

M3 (h) = M3 (h) (Homo sapiens, UniProt P20309); test: Receptor panel, Study 1; type: binding
Procedure: as §1

B2 (h) = B2 (h) (Homo sapiens, UniProt P30411); test: Receptor panel, Study 1; type: binding
Procedure: as §1

5-HT1A (h) = 5-HT1A (h) (Homo sapiens, UniProt P08908); test: Receptor panel, Study 1; type: binding
Procedure: as §1

Cl^− channel = test: Receptor panel, Study 1; type: binding
Procedure: as §1

kappa (KOP) = test: Receptor panel, Study 1; type: binding
Procedure: as §1

DA transporter (h) = DA transporter (h) (Homo sapiens, UniProt Q01959); test: Receptor panel, Study 1; type: binding
Procedure: as §1

M2 (h) = M2 (h) (Homo sapiens, UniProt P08172); test: Receptor panel, Study 1; type: binding
Procedure: as §1

A1 (h) = A1 (h) (Homo sapiens, UniProt P30542); test: Receptor panel, Study 1; type: binding
Procedure: as §1

NK2 (h) = NK2 (h) (Homo sapiens, UniProt P21452); test: Receptor panel, Study 1; type: binding
Procedure: as §1

H2 (h) = H2 (h) (Homo sapiens, UniProt P25021); test: Receptor panel, Study 1; type: binding
Procedure: as §1

sst (non-selective) = test: Receptor panel, Study 1; type: binding
Procedure: as §1

SK^+Ca channel = test: Receptor panel, Study 1; type: binding
Procedure: as §1

D1 (h) = D1 (h) (Homo sapiens, UniProt P21728); test: Receptor panel, Study 1; type: binding
Procedure: as §1

5-HT5A (h) = 5-HT5A (h) (Homo sapiens, UniProt P47898); test: Receptor panel, Study 1; type: binding
Procedure: as §1

alpha 1 = test: Receptor panel, Study 1; type: binding
Procedure: as §1

5-HT1B = 5-HT1B (Rattus norvegicus, UniProt P28564); test: Receptor panel, Study 1; type: binding
Procedure: as §1

delta 2(h) (DOP) = delta 2(h) (DOP) (Homo sapiens, UniProt P41143); test: Receptor panel, Study 1; type: binding
Procedure: as §1

A3 (h) = A3 (h) (Homo sapiens, UniProt P0DMS8); test: Receptor panel, Study 1; type: binding
Procedure: as §1

BZD (central) = test: Receptor panel, Study 1; type: binding
Procedure: as §1

NE transporter (h) = NE transporter (h) (Homo sapiens, UniProt P23975); test: Receptor panel, Study 1; type: binding
Procedure: as §1

5-HT Transporter (h) = 5-HT Transporter (h) (Homo sapiens, UniProt P31645); test: Receptor panel, Study 1; type: binding
Procedure: as §1

Na^+ channel (site 2) = test: Receptor panel, Study 1; type: binding
Procedure: as §1

K^+V channel = test: Receptor panel, Study 1; type: binding
Procedure: as §1

CXCR2 (h) (IL-8B) = CXCR2 (h) (IL-8B) (Homo sapiens, UniProt P25025); test: Receptor panel, Study 1; type: binding
Procedure: as §1

Ca^2+ channel = test: Receptor panel, Study 1; type: binding
Procedure: as §1

alpha 2 = test: Receptor panel, Study 1; type: binding
Procedure: as §1

CCR1 (h) = CCR1 (h) (Homo sapiens, UniProt P32246); test: Receptor panel, Study 1; type: binding
Procedure: as §1

beta 1 (h) = beta 1 (h) (Homo sapiens, UniProt P08588); test: Receptor panel, Study 1; type: binding
Procedure: as §1

[1] = Preclinical PK, oral and IV; settings: dog, in vivo

MC4 (h), sequence (P32245 whole entry): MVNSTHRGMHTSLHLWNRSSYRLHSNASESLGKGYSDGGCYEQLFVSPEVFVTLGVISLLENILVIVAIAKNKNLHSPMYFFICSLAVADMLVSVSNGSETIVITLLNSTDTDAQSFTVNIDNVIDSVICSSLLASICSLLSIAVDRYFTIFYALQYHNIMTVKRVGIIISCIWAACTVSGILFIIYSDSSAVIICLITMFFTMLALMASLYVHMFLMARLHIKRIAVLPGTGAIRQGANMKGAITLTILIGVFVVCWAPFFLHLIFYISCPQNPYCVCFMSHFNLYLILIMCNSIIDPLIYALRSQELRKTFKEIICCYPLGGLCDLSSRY
DA transporter (h), sequence (Q01959 whole entry): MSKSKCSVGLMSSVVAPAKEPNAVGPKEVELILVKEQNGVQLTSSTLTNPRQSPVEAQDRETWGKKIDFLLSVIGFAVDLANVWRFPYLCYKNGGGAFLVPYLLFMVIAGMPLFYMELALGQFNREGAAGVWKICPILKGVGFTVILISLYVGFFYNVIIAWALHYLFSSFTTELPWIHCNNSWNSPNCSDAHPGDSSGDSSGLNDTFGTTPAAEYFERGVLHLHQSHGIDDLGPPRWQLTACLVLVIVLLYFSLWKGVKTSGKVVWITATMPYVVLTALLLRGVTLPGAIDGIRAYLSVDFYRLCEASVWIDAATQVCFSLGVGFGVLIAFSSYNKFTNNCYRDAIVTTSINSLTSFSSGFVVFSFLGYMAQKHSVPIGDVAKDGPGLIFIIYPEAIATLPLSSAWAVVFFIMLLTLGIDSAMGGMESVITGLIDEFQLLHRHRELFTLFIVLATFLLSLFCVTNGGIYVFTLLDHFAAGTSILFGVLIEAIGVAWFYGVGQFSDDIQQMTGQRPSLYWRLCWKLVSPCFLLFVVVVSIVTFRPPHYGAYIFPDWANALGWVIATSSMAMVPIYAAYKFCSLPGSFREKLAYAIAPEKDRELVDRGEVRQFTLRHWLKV
A3 (h), sequence (P0DMS8 whole entry): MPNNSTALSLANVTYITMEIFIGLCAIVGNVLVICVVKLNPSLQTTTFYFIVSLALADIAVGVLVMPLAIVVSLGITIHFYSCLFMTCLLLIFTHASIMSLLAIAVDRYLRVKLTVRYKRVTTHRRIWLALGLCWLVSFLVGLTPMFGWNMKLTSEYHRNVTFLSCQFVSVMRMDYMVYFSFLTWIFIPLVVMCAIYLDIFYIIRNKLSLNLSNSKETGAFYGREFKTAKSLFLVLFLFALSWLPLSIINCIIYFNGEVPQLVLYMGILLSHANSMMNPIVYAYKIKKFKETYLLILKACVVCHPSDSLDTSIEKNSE
5-HT7 (h), sequence (P34969 whole entry): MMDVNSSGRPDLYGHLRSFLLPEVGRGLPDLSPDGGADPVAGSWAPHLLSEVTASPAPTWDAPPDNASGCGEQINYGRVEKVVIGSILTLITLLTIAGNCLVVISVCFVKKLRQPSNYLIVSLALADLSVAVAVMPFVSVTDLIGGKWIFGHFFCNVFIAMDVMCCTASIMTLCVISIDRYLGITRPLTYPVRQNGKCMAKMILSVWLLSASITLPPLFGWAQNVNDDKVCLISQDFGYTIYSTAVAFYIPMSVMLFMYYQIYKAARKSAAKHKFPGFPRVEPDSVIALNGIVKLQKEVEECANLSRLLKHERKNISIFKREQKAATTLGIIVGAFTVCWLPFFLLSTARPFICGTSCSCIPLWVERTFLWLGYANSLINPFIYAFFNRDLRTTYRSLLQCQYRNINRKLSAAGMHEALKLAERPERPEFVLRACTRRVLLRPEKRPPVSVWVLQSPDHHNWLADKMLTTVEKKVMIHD
beta 1 (h), sequence (P08588 whole entry): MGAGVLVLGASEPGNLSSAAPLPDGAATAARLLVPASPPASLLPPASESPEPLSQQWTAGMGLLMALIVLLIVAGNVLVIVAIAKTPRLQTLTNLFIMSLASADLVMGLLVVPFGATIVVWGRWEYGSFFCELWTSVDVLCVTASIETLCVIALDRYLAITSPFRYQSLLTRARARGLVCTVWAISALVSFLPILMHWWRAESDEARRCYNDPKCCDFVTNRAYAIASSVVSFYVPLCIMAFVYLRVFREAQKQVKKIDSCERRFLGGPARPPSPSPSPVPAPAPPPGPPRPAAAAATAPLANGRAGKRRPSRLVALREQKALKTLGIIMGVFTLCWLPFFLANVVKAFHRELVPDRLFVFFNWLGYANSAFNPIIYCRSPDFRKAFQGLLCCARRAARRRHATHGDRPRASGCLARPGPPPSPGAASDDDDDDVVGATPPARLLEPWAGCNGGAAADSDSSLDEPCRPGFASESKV
VIP1 (h) (VPAC1), sequence (P32241 31-457): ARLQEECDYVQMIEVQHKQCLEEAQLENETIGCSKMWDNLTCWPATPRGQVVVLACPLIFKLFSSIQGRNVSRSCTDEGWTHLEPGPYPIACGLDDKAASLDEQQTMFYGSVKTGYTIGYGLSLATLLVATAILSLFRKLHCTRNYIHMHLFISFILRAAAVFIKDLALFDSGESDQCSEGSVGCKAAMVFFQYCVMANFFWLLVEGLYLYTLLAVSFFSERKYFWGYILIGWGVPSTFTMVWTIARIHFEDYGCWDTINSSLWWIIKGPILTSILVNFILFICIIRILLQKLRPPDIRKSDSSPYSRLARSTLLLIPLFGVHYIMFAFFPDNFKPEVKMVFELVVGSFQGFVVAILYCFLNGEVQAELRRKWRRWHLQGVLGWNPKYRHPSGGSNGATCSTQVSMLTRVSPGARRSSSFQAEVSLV
5-HT6 (h), sequence (P50406 whole entry): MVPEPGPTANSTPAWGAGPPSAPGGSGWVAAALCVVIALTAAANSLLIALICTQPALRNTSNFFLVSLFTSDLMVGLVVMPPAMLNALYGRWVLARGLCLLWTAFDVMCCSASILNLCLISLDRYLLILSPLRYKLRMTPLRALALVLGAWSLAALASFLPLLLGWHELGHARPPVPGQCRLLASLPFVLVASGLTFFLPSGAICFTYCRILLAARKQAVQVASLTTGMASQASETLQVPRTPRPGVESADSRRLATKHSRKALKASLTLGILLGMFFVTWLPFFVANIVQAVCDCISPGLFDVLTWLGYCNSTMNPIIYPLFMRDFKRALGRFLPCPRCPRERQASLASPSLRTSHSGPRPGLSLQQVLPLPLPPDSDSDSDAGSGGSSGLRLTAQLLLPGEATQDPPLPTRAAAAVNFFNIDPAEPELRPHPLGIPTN
CCR1 (h), sequence (P32246 whole entry): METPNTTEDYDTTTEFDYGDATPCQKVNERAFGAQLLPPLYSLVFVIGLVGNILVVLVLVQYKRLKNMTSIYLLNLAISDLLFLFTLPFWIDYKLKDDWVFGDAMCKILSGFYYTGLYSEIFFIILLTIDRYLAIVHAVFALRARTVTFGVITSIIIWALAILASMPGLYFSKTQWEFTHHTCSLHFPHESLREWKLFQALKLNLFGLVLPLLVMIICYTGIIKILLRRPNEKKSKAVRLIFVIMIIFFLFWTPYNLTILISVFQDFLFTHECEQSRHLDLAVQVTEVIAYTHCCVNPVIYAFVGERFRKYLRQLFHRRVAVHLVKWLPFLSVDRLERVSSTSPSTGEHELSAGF
A1 (h), sequence (P30542 whole entry): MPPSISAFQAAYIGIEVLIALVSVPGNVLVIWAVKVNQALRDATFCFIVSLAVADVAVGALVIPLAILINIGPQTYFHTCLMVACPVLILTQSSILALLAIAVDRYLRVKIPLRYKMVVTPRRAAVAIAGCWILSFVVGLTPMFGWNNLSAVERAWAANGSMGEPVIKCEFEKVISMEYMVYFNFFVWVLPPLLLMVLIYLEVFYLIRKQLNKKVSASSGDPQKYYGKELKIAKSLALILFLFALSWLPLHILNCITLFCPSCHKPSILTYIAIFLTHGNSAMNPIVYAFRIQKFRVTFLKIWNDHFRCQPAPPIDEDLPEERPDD
AT1 (h), sequence (P30556 whole entry): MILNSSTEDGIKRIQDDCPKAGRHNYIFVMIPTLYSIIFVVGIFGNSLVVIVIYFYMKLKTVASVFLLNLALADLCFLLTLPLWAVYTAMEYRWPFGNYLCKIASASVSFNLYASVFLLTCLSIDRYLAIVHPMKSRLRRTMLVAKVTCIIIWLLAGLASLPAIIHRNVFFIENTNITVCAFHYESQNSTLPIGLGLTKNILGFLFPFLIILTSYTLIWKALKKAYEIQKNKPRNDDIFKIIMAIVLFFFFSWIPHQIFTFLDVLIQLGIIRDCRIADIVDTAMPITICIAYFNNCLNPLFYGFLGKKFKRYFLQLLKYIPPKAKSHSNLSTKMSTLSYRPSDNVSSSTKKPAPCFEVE
ORL1 (h) (NOP), sequence (P41146 whole entry): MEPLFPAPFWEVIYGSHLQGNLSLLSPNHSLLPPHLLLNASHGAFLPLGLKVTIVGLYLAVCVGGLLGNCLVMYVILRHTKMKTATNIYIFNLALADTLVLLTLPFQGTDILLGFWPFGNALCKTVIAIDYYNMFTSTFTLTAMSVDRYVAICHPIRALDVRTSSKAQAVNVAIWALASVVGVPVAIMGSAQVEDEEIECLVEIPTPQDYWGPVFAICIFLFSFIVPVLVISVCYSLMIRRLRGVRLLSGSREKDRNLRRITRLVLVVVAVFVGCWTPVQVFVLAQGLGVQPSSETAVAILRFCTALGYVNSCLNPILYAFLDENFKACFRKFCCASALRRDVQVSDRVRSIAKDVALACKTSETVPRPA
H2 (h), sequence (P25021 whole entry): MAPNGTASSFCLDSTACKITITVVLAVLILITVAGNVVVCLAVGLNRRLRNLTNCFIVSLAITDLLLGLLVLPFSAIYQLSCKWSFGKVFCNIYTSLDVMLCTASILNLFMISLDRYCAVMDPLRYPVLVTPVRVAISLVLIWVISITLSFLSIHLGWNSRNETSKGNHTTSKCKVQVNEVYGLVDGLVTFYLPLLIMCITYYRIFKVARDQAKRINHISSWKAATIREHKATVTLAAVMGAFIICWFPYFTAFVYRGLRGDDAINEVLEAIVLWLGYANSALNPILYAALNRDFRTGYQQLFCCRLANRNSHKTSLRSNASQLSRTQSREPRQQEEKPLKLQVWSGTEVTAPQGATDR

For `C=CC(=O)N[C@H]1CCC[C@H]1NC(=O)c1sc2nccc3c2c1NC(=O)N3c1cnc(CC(C)C)cc1C` (atropisomer, axis not shown) [compound of Formula (III), N-((1R,2S)-2-Acrylamidocyclopentyl)-5-(S)-(6-isobutyl-4-methylpyridin-3-yl)-4-oxo-4,5-dihydro-3H-1-thia-3,5,8-triazaacenaphthylene-2-carboxamide], the inhibition at 10 µM (5-HT2A (h)) was under 10%, the inhibition at 10 µM (VIP1 (h) (VPAC1)) was under 10% and the inhibition at 10 µM (ORL1 (h) (NOP)) was 14.6%. The inhibition at 10 µM (5-HT6 (h)) was under 10%, the inhibition at 10 µM (MC4 (h)) was under 10% and the inhibition at 10 µM (GAL2 (h)) was under 10%. It also gave an inhibition at 10 µM (AT1 (h)) of under 10%, an inhibition at 10 µM (5-HT7 (h)) of under 10% and an inhibition at 10 µM (NK3 (h)) of 38.9%. The inhibition at 10 µM (ETA (h)) was under 10%, the inhibition at 10 µM (M3 (h)) was under 10% and the inhibition at 10 µM (B2 (h)) was under 10%. The inhibition at 10 µM (5-HT1A (h)) was under 10%, the “% Inhibition at 10 μM” value (Cl^− channel) was 25.1% and the “% Inhibition at 10 μM” value (kappa (KOP)) was “— (no inhibition observed)”. The inhibition at 10 µM (DA transporter (h)) was under 10%, the inhibition at 10 µM (M2 (h)) was under 10% and the inhibition at 10 µM (A1 (h)) was under 10%. The inhibition at 10 µM (NK2 (h)) was 16%, the inhibition at 10 µM (H2 (h)) was under 10% and the “% Inhibition at 10 μM” value (sst (non-selective)) was “— (no inhibition observed)”. For the same molecule, the “% Inhibition at 10 μM” value (SK^+Ca channel) was “— (no inhibition observed)”, the inhibition at 10 µM (D1 (h)) was under 10% and the inhibition at 10 µM (5-HT5A (h)) was under 10%. The “% Inhibition at 10 μM” value (alpha 1) was “— (no inhibition observed)”, the inhibition at 10 µM (5-HT1B) was under 10% and the inhibition at 10 µM (delta 2(h) (DOP)) was under 10%. The inhibition at 10 µM (A3 (h)) was under 10%, the “% Inhibition at 10 μM” value (BZD (central)) was “— (no inhibition observed)” and the inhibition at 10 µM (NE transporter (h)) was under 10%. For the same molecule, the inhibition at 10 µM (5-HT Transporter (h)) was under 10%, the “% Inhibition at 10 μM” value (Na^+ channel (site 2)) was “— (no inhibition observed)” and the “% Inhibition at 10 μM” value (K^+V channel) was 12.2%. For the same molecule, the inhibition at 10 µM (CXCR2 (h) (IL-8B)) was under 10%, the “% Inhibition at 10 μM” value (Ca^2+ channel) was “— (no inhibition observed)” and the “% Inhibition at 10 μM” value (alpha 2) was “— (no inhibition observed)”. It also gave an inhibition at 10 µM (CCR1 (h)) of under 10%, an inhibition at 10 µM (beta 1 (h)) of under 10% and a clearance ([1]; iv) of 11 ± 3 mL/min/kg. For the same molecule, the half-life ([1]; iv, read-out: IV T1/2 (converted)) was 66 ± 6 min, the Vd ([1]; iv, read-out: Vss) was 0.8 ± 0.2 L/kg and the Cmax ([1]; oral) was 890 ± 286 ng/mL. The Tmax ([1]; oral) was 48 ± 18 min and the AUC(0-inf) ([1]; oral, read-out: Oral AUCinf) was 1960 ± 421 ng·h/mL.

— US12622910B2, “Inhibitors of Bruton's tyrosine kinase and methods of their use” (Janssen Pharmaceutica NV, priority 2021, dated 2026)
